The source of these data is article PMC8757611, “Synthesis, biological evaluation, and molecular docking of new series of antitumor and apoptosis inducers designed as VEGFR-2 inhibitors” (Journal of Enzyme Inhibition and Medicinal Chemistry, 2022).

Series [1] addresses T1, VEGFR-2 kinase (Homo sapiens, UniProt P35968).
T1 construct: purchased
The series is described as follows: VEGFR-2 inhibition testing (ELISA kit). It is filed as biochemical. On the procedure:
Enzyme linked immunosorbent assay (ELISA) technique was applied to human VEGFR-2 ELISA kit to calculate IC50 of all new derivatives against VEGFR-2 kinase. The antibody specific to the enzyme was planted on a 96 well microplate to which different micromolar concentrations of the positive control and the new compounds was added. […] Finally, stop solution (50 µL) was added and the reading was immediately determined at 450 nm. To get the standard curve, the concentrations used were presented on the X-axis and the corresponding absorbances were on the Y-axis.

In series [2] the test system is HepG2. The series is described as follows: In vitro antitumor MTT assay, HepG2. The series is classed as cell-based, human. Conditions: for IC50: Homo sapiens, HepG2, MTT, mean ± S.D. of three experiments. How it is done:
(§1) The antitumor assay was performed against the human cancer cell lines: HepG2, PC3, and MCF-7. The chemicals used in this test were supplied by Sigma-Aldrich with high analytical grade. National Cancer Institute (Cairo, Egypt) was the supplier of the cell lines tested which originally obtained from American Type Culture Collection (ATCC). MTT protocol was applied to quantitatively measure the antiproliferative activity of the new derivatives. In this test, the colour change is attributed to that the yellow tetrazolium bromide (MTT) is converted to formazan derivative which has purple colour. This biochemical reaction occurs only in viable cells by mitochondrial succinate dehydrogenase. The tested cells were initially cultured in RPMI-1640 medium with foetal bovine serum (10%). To the incubated cell, streptomycin (100 µg/mL) and penicillin (100 units/mL) were added in a 5% CO2 incubator at 37 °C. Then seeding of the cells was performed in a 96-well plate under 5% CO2 and at density of 1.0 × 10^4 cells/well at 37 °C for 48 h. Various non-toxic concentrations of the tested candidates were added and the cells were then incubated for further 24 h to the cells treated with the new compounds, MTT solution (20 µL at 5 mg/mL) was added, followed by 4 h incubation. One hundred microlitres of Dimethyl sulfoxide (DMSO) were added into each well to dissolve the purple formazan formed which is colorimetrically absorbed at 570 nm using a plate reader (EXL 800, USA). Finally, the percentages of cell viability was obtained as (A570 of treated samples/A570 of untreated sample) × 100.
A general note: Formazan colour is commonly taken as a measure of viable cells.

In series [3] the test system is PC3. As to the kind of experiment: In vitro antitumor MTT assay, PC3. The series is classed as cell-based, human. The following applies: for IC50: Homo sapiens, PC-3, MTT, mean ± S.D. of three experiments. On the procedure:
as §1

Series [4] concerns MCF-7. The series is described as follows: In vitro antitumor MTT assay, MCF-7. The series is classed as cell-based, human. Conditions: for IC50: Homo sapiens, MCF7, MTT, mean ± S.D. of three experiments. How it is done: as §1
Series [5] concerns WI-38. The series is described as follows: Cytotoxicity against normal lung fibroblasts (MTT). The series is classed as cell-based. Conditions: normal human lung fibroblasts. How it is done: as §1
Of note, the cytotoxicity against normal human lung fibroblasts cell line (WI-38) were examined for the nine selected compounds.

Series [6] concerns human cancer cell lines HepG2, PC3, MCF-7. The series is described as follows: In vitro antitumor MTT assay, panel of HepG2, PC3 and MCF-7. The series is classed as cell-based. The following applies: range over HepG2, PC3 and MCF-7, read-out: IC50 against human cancer cell lines. How it is done: as §1
The target of series [7] is FGFR. The series is described as follows: Multi-kinase assay (HTRF), FGFR. It is filed as biochemical. On the procedure: Different kinases and ATP were obtained from Sigma. The specified kinase and its substrate was incubated with compound for 5 min in buffer solution to start the enzymatic reaction; ATP was then added to the reaction mixture and was maintained for 30 min at room temperature.
A general note: TR-FRET usually uses a lanthanide donor and a delayed reading to cut background.

Series [8] relates to VEGFR-2. Also on record: method as in PMID 22153662. Conditions: cited from earlier work.

T1 sequence (P35968 20-1356): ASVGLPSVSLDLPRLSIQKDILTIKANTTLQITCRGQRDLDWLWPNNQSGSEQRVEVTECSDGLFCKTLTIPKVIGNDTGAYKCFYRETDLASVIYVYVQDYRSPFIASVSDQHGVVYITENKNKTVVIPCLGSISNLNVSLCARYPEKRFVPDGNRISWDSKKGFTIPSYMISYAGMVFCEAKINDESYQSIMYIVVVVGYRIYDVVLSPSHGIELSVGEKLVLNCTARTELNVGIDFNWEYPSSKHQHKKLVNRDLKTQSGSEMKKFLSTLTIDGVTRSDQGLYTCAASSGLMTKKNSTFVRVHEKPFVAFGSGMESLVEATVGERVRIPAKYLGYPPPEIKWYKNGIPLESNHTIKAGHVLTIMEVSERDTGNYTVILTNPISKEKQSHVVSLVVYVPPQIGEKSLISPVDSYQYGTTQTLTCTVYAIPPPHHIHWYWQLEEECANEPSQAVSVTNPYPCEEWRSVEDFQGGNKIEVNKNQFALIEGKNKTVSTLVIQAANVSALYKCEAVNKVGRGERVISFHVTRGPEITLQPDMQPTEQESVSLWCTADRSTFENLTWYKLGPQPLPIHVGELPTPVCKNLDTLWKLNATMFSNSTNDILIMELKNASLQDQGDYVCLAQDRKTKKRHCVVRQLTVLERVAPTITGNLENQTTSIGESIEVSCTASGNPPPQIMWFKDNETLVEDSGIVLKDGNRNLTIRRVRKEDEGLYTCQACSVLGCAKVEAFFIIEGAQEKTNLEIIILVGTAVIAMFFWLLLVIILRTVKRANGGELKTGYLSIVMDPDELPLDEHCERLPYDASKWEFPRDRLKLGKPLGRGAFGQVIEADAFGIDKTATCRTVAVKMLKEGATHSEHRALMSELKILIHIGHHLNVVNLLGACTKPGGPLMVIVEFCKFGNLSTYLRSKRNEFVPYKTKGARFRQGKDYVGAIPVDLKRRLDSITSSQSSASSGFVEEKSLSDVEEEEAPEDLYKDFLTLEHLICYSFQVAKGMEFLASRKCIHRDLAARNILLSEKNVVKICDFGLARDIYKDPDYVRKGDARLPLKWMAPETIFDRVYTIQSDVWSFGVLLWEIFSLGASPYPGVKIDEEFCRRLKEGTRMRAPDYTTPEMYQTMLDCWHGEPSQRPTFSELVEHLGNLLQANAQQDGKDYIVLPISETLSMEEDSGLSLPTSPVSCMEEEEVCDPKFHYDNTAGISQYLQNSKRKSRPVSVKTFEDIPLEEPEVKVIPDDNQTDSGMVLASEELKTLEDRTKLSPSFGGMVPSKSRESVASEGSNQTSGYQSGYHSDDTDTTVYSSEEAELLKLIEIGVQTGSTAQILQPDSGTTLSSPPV

With `O=C(Nc1ccc(Oc2nc3ccccc3nc2Cl)cc1)c1ccc(Cl)cc1` [Compound 20b, 4-Chloro-N-(4-((3-chloroquinoxalin-2-yl)oxy)phenyl)benzamide], the melting point (as a rule, the temperature of the solid-liquid transition) fell in the range of 264 to 265 °C. It took 0.114 ± 0.00283 µM to reach half-maximal inhibition in series [1] (IC50).
`O=C(Nc1ccc(Oc2nc(Cl)nc3ccccc23)cc1)c1ccccc1` [Compound 15a, N-(4-((2-Chloroquinazolin-4-yl)oxy)phenyl)benzamide] returned a melting point of 244 to 245 °C. Also, half-maximal inhibition in series [1] (IC50) required 0.0673 ± 0.00154 µM. Moreover, in [2], the IC50 (as a rule, the point on the concentration scale where inhibition reaches its midpoint) was 34.6 ± 2.82 µM. The same molecule returned an IC50 in [3] of 30.3 ± 2.56 µM. The same molecule returned a half-inhibitory concentration (IC50) in series [4] of 47.1 ± 3.59 µM. The molecule further gave an IC50 in series [5] of 250 ± 2.51 µM. In addition, in [6], the half-inhibitory concentration (IC50) lay within 17.4 to 47.1 µM.
For the molecule `O=C(Nc1ccccc1)Nc1ccc(Oc2nc3ccccc3nc2Cl)cc1` [Compound 19a, 1-(4-((3-Chloroquinoxalin-2-yl)oxy)phenyl)-3-phenylurea], the melting point lay in the range of 248 to 249 °C. The same molecule showed an IC50 in series [1] of 0.0936 ± 0.00182 µM.
Molecule `O=C(Nc1ccc(Oc2nc3ccccc3nc2Cl)cc1)c1cccnc1` [Compound 20d, N-(4-((3-Chloroquinoxalin-2-yl)oxy)phenyl)nicotinamide] returned a melting point of 219 to 220 °C. In series [1], this molecule showed an IC50 of 0.0696 ± 0.00116 µM. The molecule also came in with an IC50 in series [2] of 221 ± 11.4 µM. The molecule also displayed an IC50 in series [3] above 300 µM. Moreover, inhibition in series [4] was half-maximal at 246 ± 13.6 µM (IC50). For the same molecule, the half-inhibitory concentration (IC50) in [5] came out at 460.7 ± 4.04 µM.
Molecule `O=C(Nc1ccc(Oc2ccccc2[N+](=O)[O-])cc1)c1ccccc1` [Compound 23a, N-(4–(2-Nitrophenoxy)phenyl)benzamide] yielded a melting point of 197 to 198 °C. In addition, in [1], it took 0.0748 ± 0.00167 µM to reach half-maximal inhibition (IC50). The half-maximal inhibitory concentration (IC50) in [2] is 153 ± 10.8 µM. In addition, the IC50 in series [3] stood at 221 ± 12.9 µM. This molecule also had an IC50 in series [4] of 234 ± 13.2 µM. The half-inhibitory concentration (IC50) in series [5] stood at 758.2 ± 5.15 µM.
Consider `C#Cc1cccc(Nc2ncnc3cc(OCCOC)c(OCCOC)cc23)c1` [Erlotinib, reference compound], for which inhibition in series [7] was half-maximal at 0.034 ± 0.00092 µM (IC50).
`O=C(Nc1ccc(Oc2nc(Cl)nc3ccccc23)cc1)c1cccc(Cl)c1` [Compound 15c, 3-Chloro-N-(4-((2-chloroquinazolin-4-yl)oxy)phenyl)benzamide] yielded a melting point of 229 to 230 °C. In series [1], this molecule returned an IC50 of 0.0652 ± 0.00136 µM. Also, the IC50 in [2] was determined as 50.4 ± 4.39 µM. The molecule also showed a half-inhibitory concentration (IC50) in series [3] of 56 ± 1.9 µM. Moreover, the 50% inhibitory concentration (IC50) in series [4] amounted to 62.7 ± 5.12 µM. Also, the IC50 in series [5] was found to be 236 ± 2.39 µM.
The molecule `CCCCNC(=O)Nc1ccc(Oc2nc(Cl)nc3ccccc23)cc1` [Compound 14b, 1-Butyl-3-(4-((2-chloroquinazolin-4-yl)oxy)phenyl)urea] came in with a melting point of 214 to 215 °C. Also, half-maximal inhibition in series [1] (IC50) was put at 0.0942 ± 0.00153 µM.
On to `CCCCNC(=O)Nc1ccc(Oc2ccccc2[N+](=O)[O-])cc1` [Compound 22b, 1-Butyl-3-(4-(2-nitrophenoxy)phenyl)urea], for which the melting point lay in the range of 163 to 164 °C. Moreover, it took 0.107 ± 0.002 µM to reach half-maximal inhibition in [1] (IC50).
In the case of `O=C(Nc1ccc(Oc2nc3ccccc3nc2Cl)cc1)c1cccc(Cl)c1` [Compound 20c, 3-Chloro-N-(4-((3-chloroquinoxalin-2-yl)oxy)phenyl)benzamide], the melting point lay within 243 to 244 °C. The same molecule showed an IC50 in [1] of 0.0866 ± 0.00175 µM. The same molecule displayed an IC50 in series [2] of 144 ± 9.51 µM. In series [3], this molecule yielded an IC50 of 157 ± 10 µM. In series [4], this molecule gave an IC50 of 135 ± 9.02 µM. In series [5], this molecule yielded an IC50 of 402.9 ± 3.26 µM.
For the molecule `O=C(Nc1ccc(Oc2ccccc2[N+](=O)[O-])cc1)c1cccc(Cl)c1` [Compound 23b, 3-Chloro-N-(4–(2-nitrophenoxy)phenyl)benzamide], the melting point is 169 to 170 °C. The same molecule displayed a 50% inhibitory concentration (IC50) in series [1] of 0.105 ± 0.0025 µM.
Consider `CNC(=O)c1cc(Oc2ccc(NC(=O)Nc3ccc(Cl)c(C(F)(F)F)c3)cc2)ccn1` [Sorafenib, reference compound], for which the IC50 in [2] came to 12.9 ± 0.85 µM; in series [3], 19.4 ± 1.34 µM; in series [4] it was 14.5 ± 1.68 µM.
In turn, `O=C(Nc1ccc(Oc2nc(Cl)nc3ccccc23)cc1)c1ccc(Cl)cc1` [Compound 15b, 4-Chloro-N-(4-((2-chloroquinazolin-4-yl)oxy)phenyl)benzamide] gave a melting point of 249 to 250 °C. The molecule further showed an IC50 in series [1] of 0.0864 ± 0.00176 µM. In [2], this molecule showed an IC50 of 17.4 ± 1.54 µM. Further, in [2] (fraction of sorafenib potency), the “potency relative to sorafenib potency, HepG2” value was determined as 0.74. In series [3], this molecule yielded a concentration for half-maximal inhibition (IC50) of 25.6 ± 2.31 µM. In addition, the “potency relative to sorafenib potency, PC3” value in series [3] (fraction of sorafenib potency) was found to be 0.76. The same molecule returned an IC50 in [4] of 19.9 ± 1.79 µM. For the same molecule, the “potency relative to sorafenib potency, MCF-7” value in [4] (fraction of sorafenib potency) is 0.73. The molecule further displayed an IC50 in [5] of 233 ± 2.39 µM. For the same molecule, in [6], the IC50 lay in the range of 17.4 to 47.1 µM.
For the molecule `COc1cccc2c1C(=O)c1c(O)c3c(c(O)c1C2=O)C[C@@](O)(C(=O)CO)C[C@@H]3O[C@H]1C[C@H](N)[C@H](O)[C@H](C)O1` [Doxorubicin, reference compound], the IC50 in series [2] is 14.6 ± 1.1 µM; in series [3] it was 16.3 ± 1.1 µM; in series [4], 12.4 ± 0.74 µM.
`CCCCNC(=O)Nc1ccc(Oc2nc3ccccc3nc2Cl)cc1` [Compound 19b, 1-Butyl-3-(4-((3-chloroquinoxalin-2-yl)oxy)phenyl)urea]: the melting point lay in the range of 227 to 228 °C. Also, in series [1], it took 0.0752 ± 0.00157 µM to reach half-maximal inhibition (IC50). In [2], this molecule yielded a half-inhibitory concentration (IC50) of 73.4 ± 5.95 µM. The molecule further displayed an IC50 in [3] of 84.4 ± 6.68 µM. In addition, in [4], inhibition was half-maximal at 105 ± 7.57 µM (IC50). Also, the IC50 in [5] stood at 230 ± 2.51 µM.
`O=C(Nc1ccc(Oc2ccccc2[N+](=O)[O-])cc1)c1cccnc1` [Compound 23c, N-(4–(2-Nitrophenoxy)phenyl)nicotinamide] registered a melting point of 160 to 161 °C. The molecule further displayed an IC50 in series [1] of 0.119 ± 0.00316 µM.
In turn, `O=C(Nc1ccccc1)Nc1ccc(Oc2nc(Cl)nc3ccccc23)cc1` [Compound 14a, 1-(4-((2-Chloroquinazolin-4-yl)oxy)phenyl)-3-phenylurea] yielded a melting point of 236 to 237 °C. In addition, the IC50 in series [1] worked out at 0.0671 ± 0.00107 µM. Besides, in series [2], the IC50 turned out to be 41.5 ± 3.6 µM. For the same molecule, the 50% inhibitory concentration (IC50) in series [3] is 50.7 ± 4.36 µM. In [4], this molecule yielded an IC50 of 58.3 ± 4.87 µM. This molecule registered a half-maximal inhibitory concentration (IC50) in series [5] of 235 ± 2.43 µM.
Turning to `O=C(Nc1ccc(Oc2nc3ccccc3nc2Cl)cc1)c1ccccc1` [Compound 20a, N-(4-((3-Chloroquinoxalin-2-yl)oxy)phenyl)benzamide], the melting point was in the range of 258 to 259 °C. This molecule also came in with an IC50 in series [1] of 0.108 ± 0.00225 µM.
As for `COc1cc2ncnc(Oc3ccc(CC(=O)Nc4cnn(C(C)C)c4)cc3)c2cc1OC` [AZD-2932], in series [8], the IC50 was […].
`O=C(Nc1ccccc1)Nc1ccc(Oc2ccccc2[N+](=O)[O-])cc1` [Compound 22a, 1-(4-(2-Nitrophenoxy)phenyl)-3-phenylurea] displayed a melting point of 175 to 176 °C. In addition, in series [1], the IC50 amounted to 0.124 ± 0.00378 µM.
